Measurements as given in patent US6177253A, “Screening methods for the identification of anti-HIV compounds employing a cyclosporine-specific monoclonal antibody that cross-reacts with HIV-1 p24” (priority 1998, dated 2001).

What was measured:
Type in all cases: binding, BALB/c mice
C4 2.2 = assay: ELISA inhibition by singly modified Cs-derivatives, McAb C4 2.2; conditions: group V; McAb binds selectively to Thr^2 -Cs-BSA coating
Description: (§1) A second ELISA Procedure used conjugates of D-Lys^8 -Cs-BSA and Thr^2 -Cs-BSA for coating (Queeniaux et al., 1987b). An indirect detection system consisting of rabbit anti-mouse Ig followed by alkaline phosphates-conjugated goat anti-rabbit IgG was performed as previously described (Queenlaux et al., 1987b).
(§2) The binding of the 22 McAbs to these two Cs-BSA conjugates was also found to correlate well with their fine specificity patterns, as characterized with a set of 28-36 Cs derivatives. Typical ELISA curves showing McAb binding either to D-Lys^8 -Cs-BSA (panel A) or to Thr^2 -Ca-BSA (panel B) and inhibited by Cs or Cs derivatives are shown in FIGS. 8A-8B, D-Lys^8 -Cs-BSA was subsequently used for coating in the inhibition experiments, except for those McAbs binding selectively to Thr^2 -Cs-BSA (see Table 4 and FIGS. 7A-7C). An example of the binding of 26 Cs derivatives by McAbs belonging to each of the five specificity groups mentioned above is reported in Table 5. The results are expressed as the difference of IC50 (in log10) between the Cs derivatives and Cs. All Cs-derivatives used in this study were selected for having a conserved peptide ring conformation compared with CsA (as determined in NMR or X-ray diffraction).

G7 1.1 = assay: ELISA inhibition by singly modified Cs-derivatives, McAb G7 1.1; conditions: group I; McAb binds selectively to Thr^2 -Cs-BSA coating
Description: as §1, §2

H4 1.3 = assay: ELISA inhibition by singly modified Cs-derivatives, McAb H4 1.3; conditions: group II; D-Lys^8 -Cs-BSA coating
Description: as §1, §2

B11 1.4 = assay: ELISA inhibition by singly modified Cs-derivatives, McAb B11 1.4; conditions: group IV; D-Lys^8 -Cs-BSA coating
Description: as §1, §2

H6 1.5 = assay: ELISA inhibition by singly modified Cs-derivatives, McAb H6 1.5; conditions: group III; D-Lys^8 -Cs-BSA coating
Description: as §1, §2

Row | SMILES | log10 difference in the concentrations of Cs-derivatives and unmodified Cs required to achieve 50% inhibition in ELISA, McAb C4 2.2 (C4 2.2) [log10] | log10 difference in the concentrations of Cs-derivatives and unmodified Cs required to achieve 50% inhibition in ELISA, McAb G7 1.1 (G7 1.1) [log10] | log10 difference in the concentrations of Cs-derivatives and unmodified Cs required to achieve 50% inhibition in ELISA, McAb H4 1.3 (H4 1.3) [log10] | log10 difference in the concentrations of Cs-derivatives and unmodified Cs required to achieve 50% inhibition in ELISA, McAb B11 1.4 (B11 1.4) [log10] | log10 difference in the concentrations of Cs-derivatives and unmodified Cs required to achieve 50% inhibition in ELISA, McAb H6 1.5 (H6 1.5) [log10]
1 | C/C=C/C[C@@H](C)[C@@H](O)[C@H]1C(=O)N[C@@H](CC)C(=O)N(C)CC(=O)N(C)[C@@H](CC(C)C)C(=O)N[C@@H](C(C)C)C(=O)N(C)[C@@H](CC(C)C)C(=O)N[C@@H](C)C(=O)N[C@H](C)C(=O)N(C)[C@@H](CC(C)C)C(=O)N(C)[C@@H](CC(C)C)C(=O)N(C)[C@@H]([C@@H](C)CC)C(=O)N1C [MeVal^11 MeIle] | 0.3 | 0.4 | 0.0 | 0.2 | 0.0
2 | C/C=C/C[C@@H](C)[C@@H](O)[C@H]1C(=O)N[C@@H](CC)C(=O)N(C)CC(=O)N(C)[C@@H](CC(C)C)C(=O)N[C@@H](C(C)C)C(=O)N(C)[C@@H](Cc2ccccc2)C(=O)N[C@@H](C)C(=O)N[C@H](C)C(=O)N(C)[C@@H](CC(C)C)C(=O)N(C)[C@@H](CC(C)C)C(=O)N(C)[C@@H](C(C)C)C(=O)N1C [MeLeu^6 MePhe] | 1.3 | 0.1 | 1.2 | 0.0 | 1.7
3 | C/C=C/C[C@@H](C)[C@@H](OC(C)=O)[C@H]1C(=O)N[C@@H](CC)C(=O)N(C)CC(=O)N(C)[C@@H](CC(C)C)C(=O)N[C@@H](C(C)C)C(=O)N(C)[C@@H](CC(C)C)C(=O)N[C@@H](C)C(=O)N[C@H](C)C(=O)N(C)[C@@H](CC(C)C)C(=O)N(C)[C@@H](CC(C)C)C(=O)N(C)[C@@H](C(C)C)C(=O)N1C [MeBint^1 3'-O-acetyl] | 0.2 | 0.1 | 1.1 | 0.7 | 0.6
4 | C/C=C/C[C@@H](C)[C@@H](O)[C@H]1C(=O)N[C@@H](CC)C(=O)N(C)C(COC(C)=O)C(=O)N(C)[C@@H](CC(C)C)C(=O)N[C@@H](C(C)C)C(=O)N(C)[C@@H](CC(C)C)C(=O)N[C@@H](C)C(=O)N[C@H](C)C(=O)N(C)[C@@H](CC(C)C)C(=O)N(C)[C@@H](CC(C)C)C(=O)N(C)[C@@H](C(C)C)C(=O)N1C (stereo partly drawn) [Sar^3 O-Acetyl-MeSer] | 1.5 | 1.2 | 2.1 | 0.4 | 2.2
5 | C/C=C/C[C@@H](C)[C@@H](O)[C@H]1C(=O)N[C@@H](CC)C(=O)N(C)CC(=O)N(C)[C@@H](CC(C)C)C(=O)N[C@@H](C(C)C)C(=O)N(C)[C@@H](CC(C)C)C(=O)N[C@@H](C)C(=O)N[C@H](CCCCNC(=O)OC(C)(C)C)C(=O)N(C)[C@@H](CC(C)C)C(=O)N(C)[C@@H](CC(C)C)C(=O)N(C)[C@@H](C(C)C)C(=O)N1C [D-Ala^8 Boc-D-Lys] | 1.2 | 2.0 | 0.6 | 0.3 | 0.0
6 | C/C=C/C[C@@H](C)[C@@H](O)[C@H]1C(=O)N[C@@H](CC)C(=O)N(C)CC(=O)N(C)[C@@H](Cc2ccccc2)C(=O)N[C@@H](C(C)C)C(=O)N(C)[C@@H](CC(C)C)C(=O)N[C@@H](C)C(=O)N[C@H](C)C(=O)N(C)[C@@H](CC(C)C)C(=O)N(C)[C@@H](CC(C)C)C(=O)N(C)[C@@H](C(C)C)C(=O)N1C [MeLeu^4 MePhe] | 0.0 | < 0.0 | 0.7 | 0.2 | 2.3
7 | C/C=C/C[C@@H](C)[C@@H](O)[C@H]1C(=O)N[C@@H]([C@H](C)O)C(=O)N(C)CC(=O)N(C)[C@@H](CC(C)C)C(=O)N[C@@H](C(C)C)C(=O)N(C)[C@@H](CC(C)C)C(=O)N[C@@H](C)C(=O)N[C@H](C)C(=O)N(C)[C@@H](CC(C)C)C(=O)N(C)[C@@H](CC(C)C)C(=O)N(C)[C@@H](C(C)C)C(=O)N1C [Abu^2 aThr] | 0.3 | < 0.0 | 1.5 | 0.0 | 1.1
8 | C/C=C/C[C@@H](C)[C@@H](O)[C@H]1C(=O)N[C@@H](C)C(=O)N(C)CC(=O)N(C)[C@@H](CC(C)C)C(=O)N[C@@H](C(C)C)C(=O)N(C)[C@@H](CC(C)C)C(=O)N[C@@H](C)C(=O)N[C@H](C)C(=O)N(C)[C@@H](CC(C)C)C(=O)N(C)[C@@H](CC(C)C)C(=O)N(C)[C@@H](C(C)C)C(=O)N1C [Abu^2 Ala] | 0.1 | 0.2 | – | 0.4 | 0.0
